From patent US11440923B2, “Substituted macrocyclic indole derivatives” (Bayer Aktiengesellschaft, priority 2017, dated 2022)
pEC50, pIC50: −log10 of the molar value. Like-named read-outs stand apart in the source and are kept apart here.

How the values were obtained:
[1] = 11-membered ring
[2] = test system: MV-4-11 cells; assay: Antiproliferation assay MV-4-11 (Assay 7); assay type: cell-based; conditions: 72 h, CellTiter-Glo; read-out: Antiproli MV-4-11 IC50 median
Method: (§1) Assessment of the Anti-Proliferative Effect of Compounds in Different Cell Lines
(§2) The impact of compounds on the proliferation of different cell lines was assessed using the CellTiter-Glo® Luminescent Cell Viability reagent from Promega (G7573).
(§3) In parallel, cells were plated in a reference (day 0) plate for time zero determination. Cells were incubated in a humidified incubator at 37° C. overnight.
(§4) Rim wells were excluded. The cells were incubated for 72 h hours in a humidified incubator at 37° C. The day 0 plate was measured by adding 30 μL/well of CTG solution (CellTiter-Glo® Luminescent Cell Viability reagent, Promega G7573) to time zero wells in the reference plate followed by a 10 minutes incubation and luminescence reading at 0.1 ms. using the PHERAstar FS microplate reader (BMG Labtech).
(§5) After 72 h incubation, the treated plates were measured in the same way as the day 0 plate mentioned above. The Bella DRC Master Sheet was used to calculate IC50s, with CI=day 0 values and C0=DMSO control values.

[3] = test system: AMO-1 cells; assay: Antiproliferation assay AMO-1 (Assay 7); assay type: cell-based; conditions: 72 h, CellTiter-Glo, read-out: Antiproli AMO-1 IC50 median
Outline: (§6)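 Cells are plated alongside a time-zero reference plate and held overnight at 37 °C. Treated plates are incubated 72 h, then ATP-based luminescence (CellTiter-Glo) is read. IC50 uses day 0 as baseline and DMSO as untreated control.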

[4] = test system: A2780 cells; assay: Antiproliferation assay A2780 (Assay 7); assay type: cell-based; conditions: 72 h, CellTiter-Glo; read-out: Antiproli A2780 IC50 median
Method: as §1, §2, §3, §4, §5

[5] = test system: HMC-1-8 cells; assay: Antiproliferation assay HMC-1-8 (Assay 7); assay type: cell-based
Outline: as §6

[6] = test system: SUDHL5 cells; assay: Induction of cytotoxicity in SUDHL5 cells (Assay 6); assay type: cell-based; conditions: 5 h, CellTiter-Glo, read-out: Cytotox SUDHL5 IC50 (median)
Outline: (§7)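 Run alongside apoptosis measurements, this cytotoxicity readout used cells treated with compound for 5 h at 37 °C and quantified ATP-based luminescence with CellTiter-Glo.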

[7] = test system: DMS-114 cells; assay: Antiproliferation assay DMS-114 (Assay 7); assay type: cell-based; conditions: Homo sapiens; DMS-114 cells, 72 h, CellTiter-Glo; read-out: Antiproli DM-S114 IC50 median
Method: as §1, §2, §3, §4, §5

[8] = test system: SUDHL10 cells; assay: Induction of caspase-3/7 activity in SUDHL10 cells (Assay 4); assay type: cell-based; conditions: caspase-3/7 induction, 3 h, read-out: Caspase SUDHL10 EC50 (median)
Outline: (§8)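 Caspase-3/7 activity measured in DLBCL lines after 3 h compound exposure at 37 °C, following overnight plating; Caspase-Glo 3/7 luminescence read after 1 h at 37 °C. Medium-only background subtracted, values normalized to mean of DMSO-treated cells.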

[9] = test system: A-431 cells; assay: Antiproliferation assay A-431 (Assay 7); assay type: cell-based; conditions: Homo sapiens, A-431; 72 h, CellTiter-Glo; read-out: Antiproli A-431 IC50 median
Method: as §1, §2, §3, §4, §5

[10] = test system: PA-1 cells; assay: Antiproliferation assay PA-1 (Assay 7); assay type: cell-based; conditions: Homo sapiens, PA-1; 72 h, CellTiter-Glo; read-out: Antiproli PA-1 IC50 median
Method: as §1, §2, §3, §4, §5

[11] = test system: SNU-389 cells; assay: Antiproliferation assay SNU-389 (Assay 7); assay type: cell-based; conditions: 72 h, CellTiter-Glo; read-out: Antiproli SNU-389 IC50
Method: as §1, §2, §3, §4, §5

[12] = test system: SUDHL5 cells; assay: Induction of caspase-3/7 activity in SUDHL5 cells (Assay 4); assay type: cell-based; conditions: caspase-3/7 induction, 3 h, read-out: Caspase SUDHL5 EC50 (median)
Outline: as §8

[13] = test system: SUDHL5 cells; assay: Antiproliferation assay SUDHL5 (Assay 7); assay type: cell-based; conditions: 72 h, CellTiter-Glo, read-out: Antiproli SUDHL5 IC50 (median)
Outline: as §6

[14] = test system: SK-MEL-2 cells; assay: Antiproliferation assay SK-MEL-2 (Assay 7); assay type: cell-based; conditions: Homo sapiens, SK-MEL-2; 72 h, CellTiter-Glo; read-out: Antiproli SK-MEL-2 IC50 median
Method: as §1, §2, §3, §4, §5

[15] = test system: SNU-16 cells; assay: Antiproliferation assay SNU-16 (Assay 7); assay type: cell-based; conditions: Homo sapiens, SNU-16; 72 h, CellTiter-Glo; read-out: Antiproli SNU-16 IC50 median
Method: as §1, §2, §3, §4, §5

[16] = test system: SUDHL10 cells; assay: Induction of cytotoxicity in SUDHL10 cells (Assay 6); assay type: cell-based; conditions: 5 h, CellTiter-Glo, read-out: Cytotox SUDHL10 IC50 (median)
Outline: as §7

[17] = molecular target: MCL-1 (Homo sapiens (Human), UniProt Q07820, K194A/K197A/R201A); assay: Protein-protein interaction assay MCL-1/Noxa BH3 peptide (MCL-1 assay, TR-FRET); assay type: binding; conditions: MCL-1 Assay IC50 (median)
Method: The dose-dependent inhibition by the compounds described in this invention of the interaction between MCL-1 and the BH3 domain of Noxa (both human) was determined using a steady state binding competition assay with time-resolved fluorescence energy transfer (TR-FRET) readout. For that purpose MCL-1 (amino acids 173-321, N-terminal fused to Maltose Binding Protein (MBP) SEQ ID 1)) and a synthetic Noxa BH3-derived peptide of sequence Biotin-PEG2-PEG2-PAELEVE-Nva-[…]-amide (SEQ ID 2) served as protein receptor and tracer ligand respectively. The MBP-MCL-1 was purchased from Beryllium (Bedford, Mass., USA). The expression and purification of this protein construct has been described elsewhere (DOI:10.1371/journal.pone.0125010). The Noxa BH3-derived peptide can be obtained from e.g. Biosyntan (Berlin, Germany).
For that, 100-fold concentrated DMSO solutions were prepared by serial dilutions (1:3.4) of a 2 mM stock solution in a clear, 384-well microtiter plate (Greiner Bio-One, Frickenhausen, Germany). From there, 50 nl were transferred in a dark test plate (Greiner Bio-One, Frickenhausen, Germany). The assay was initiated by addition of 2 μL of a 2,5-fold concentrated MBP-MCL-1 solution (usually for a 1 nM end concentration in 5 μL reaction volume) in aqueous assay buffer [50 mM Tris/HCl pH 7, 100 mM sodium chloride (NaCl), 50 mM potassium fluoride (KF), 0.005% Tween-20, 2 mM DTT, 0.1% bovine gamma globulin (BGG)] to the compounds in the assay plate. This was followed by a 10-minute incubation step at 22° C. for pre-equilibration of the putative complex between MBP-MCL-1 and the compounds.
The mixture was incubated in the dark for one hour at 22° C. and then overnight at 4° C. The formation of MCL-1/Noxa complexes was determined by measuring the resonance energy transfer of the anti-MBP-Eu-cryptate antibody to the streptavidin-XL665 present in the reaction.
For that purpose, the fluorescence emission at 620 nm and 665 nm after excitation at 330-350 nm was measured in a TR-FRET measuring instrument, for instance a Rubystar or a Pherastar (both from BMG Lab Technologies, Offenburg, Germany) or a Viewlux (Perkin-Elmer). The ratio of the emission at 665 nm and at 622 nm was used as indicator of the amount of MCL-1/NOXA complexes present.
The resulting data (ratio) were normalized, taking 0% inhibition as the mean value of control measurements (usually 32 data points) where all reagents were included. In this case 50 nl DMSO were used instead of compounds. […] IC50 values were determined by regression analysis based on a 4 parameter equation (minimum, maximum, IC50, Hill; Y=Max+(Min−Max)/(1+(X/IC50)^Hill) using the Screener Software (Genedata).

[18] = 72 h, CellTiter-Glo; read-out: Antiproli HMC-1-8 IC50 median

Chain of MCL-1 (Q07820 whole entry, looked up, stated change not applied, the tested form may be a part): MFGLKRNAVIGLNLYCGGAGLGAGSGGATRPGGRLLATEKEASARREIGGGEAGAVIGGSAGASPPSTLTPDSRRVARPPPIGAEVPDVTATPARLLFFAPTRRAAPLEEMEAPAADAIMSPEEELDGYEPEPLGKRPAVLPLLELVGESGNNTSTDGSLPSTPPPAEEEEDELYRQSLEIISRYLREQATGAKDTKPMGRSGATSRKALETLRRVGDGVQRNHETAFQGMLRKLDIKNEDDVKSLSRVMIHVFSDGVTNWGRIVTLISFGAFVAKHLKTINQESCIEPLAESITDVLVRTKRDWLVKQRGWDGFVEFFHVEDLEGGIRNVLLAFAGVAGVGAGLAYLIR

(rac)-ethyl 4-chloro-3-ethyl-7-{3-[(6-fluoronaphthalen-1-yl)oxy]propyl}-2-methyl-(15-rac)-[2-(4-methylpiperazin-1-yl)ethyl]-2,10,11,12,13,15-hexahydropyrazolo[4′,3′:9,10][1,6]oxazacycloundecino[8,7,6-hi]indole-8-carboxylate
ring closure, isolated yield ([1]; amine bond, PPh3/DTBAD, THF, 22.7 mM): 49%

Cc1c2c(nn1C)C(CCN1CCOCC1)OCCCCn1c(C(=O)O)c(CCCOc3cccc4ccccc34)c3ccc(F)c-2c31 (centres unmarked) [Example 07]
pIC50 [2]: 6.74
pIC50 [3]: 6.33
pIC50 [4]: 5.39
pIC50 [5, 18]: 5.79

CCOC(=O)c1[nH]c2c(-c3c(C(O)C4CC4)nn(C)c3CC)c(Cl)ccc2c1CCCOc1cccc2cc(F)ccc12 (racemic)
ring closure, isolated yield ([1]; the molecule shown is the open-chain precursor, crosslinker bond, (Z)-1,4-dichlorobut-2-ene/Cs2CO3/NaI, MeCN, 197.0 mM, 70.0 °C): 59%

ethyl (15-rac)-4-chloro-3-ethyl-15-[2-(3-rac-(fluoroazetidin-1-yl)ethyl]-7-{3-[(6-fluoronaphthalen-1-yl)oxy]propyl}-2-methyl-2,10,11,12,13,15-hexahydropyrazolo[4′,3′:9,10][1,6]oxazacycloundecino[8,7,6-hi]indole-8-carboxylate (Mixture of Stereoisomers)
ring closure, isolated yield ([1]; amine bond, PPh3/DTBAD, THF, 69.2 mM): 77%

CCc1c2c(nn1C)C(CCCN1CCOCC1)OCCCCn1c(C(=O)O)c(CCCOc3cccc4cc(F)ccc34)c3ccc(Cl)c-2c31 (single isomer, unassigned; enantiomer 1) [Example 66, (+)-4-chloro-3-ethyl-7-{3-[(6-fluoronaphthalen-1-yl)oxy]propyl}-2-methyl-15-[3-(morpholin-4-yl)propyl]-2,10,11,12,13,15-hexahydropyrazolo[4′,3′:9,10][1,6]oxazacycloundecino[8,7,6-hi]indole-8-carboxylic Acid (Enantiomer 1)]
pIC50 [6]: 6.96
pIC50 [7]: 6.12
pEC50 [8]: 7.41
pIC50 [9]: 6.38
pIC50 [10]: 6.08
pIC50 [3]: 7.55
pIC50 [11]: 6.51
pEC50 [12]: 7.08
pIC50 [13]: 7.03
pIC50 [14]: 6.30
pIC50 [15]: 5.95
pIC50 [16]: 7.26
pIC50 [17]: 9.27
pIC50 [5, 18]: 5.94

CCc1c2c(nn1C)C(CCN1CCC(F)(F)C1)OCCCCn1c(C(=O)O)c(CCCOc3cccc4cc(F)ccc34)c3ccc(Cl)c-2c31 (single isomer, unassigned; enantiomer 1) [Example 58, 4-chloro-15-[2-(3,3-difluoropyrrolidin-1-yl)ethyl]-3-ethyl-7-{3-[(6-fluoronaphthalen-1-yl)oxy]propyl}-2-methyl-2,10,11,12,13,15-hexahydropyrazolo[4′,3′:9,10][1,6]oxazacycloundecino[8,7,6-hi]indole-8-carboxylic Acid (Enantiomer 1)]
pIC50 ([6]; Homo sapiens, SU-DHL-5, 5 h): 7.55
pIC50 [7]: 7.09
pEC50 ([8]; Homo sapiens, SU-DHL10, 3 h): 7.64
pIC50 [9]: 6.31
pIC50 [10]: 6.96
pIC50 ([3]; Homo sapiens, AMO1, 72 h): 7.71
pIC50 [11]: 6.65
pEC50 ([12]; Homo sapiens, SU-DHL-5, 3 h): 7.59
pIC50 ([13]; Homo sapiens, SU-DHL-5, 72 h): 7.54
pIC50 [14]: 6.14
pIC50 [15]: 6.87
pIC50 ([16]; Homo sapiens, SU-DHL10, 5 h): 7.37
pIC50 ([5]; 72 h, CellTiter-Glo, read-out: Antiproli HMC-1-8 IC50 median): 6.48

Cc1c2c(nn1C)C(CCN1CCOCC1)OCCCCn1c(C(=O)O)c(CCCOc3cccc4ccccc34)c3cccc-2c31 (centres unmarked) [Example 06]
pIC50 [2]: 4.64
pIC50 [4]: < 4.48

CCOC(=O)c1[nH]c2c(-c3c(C(O)CCN4CCOCC4)nn(C)c3CC)c(F)ccc2c1CCCOc1cccc2ccccc12 (racemic)
ring closure, isolated yield ([1]; the molecule shown is the open-chain precursor, crosslinker bond, (Z)-1,4-dichlorobut-2-ene/Cs2CO3/NaI, MeCN, 98.0 mM, […]): 50%

CCOC(=O)c1c(CCCOc2cccc3cc(F)ccc23)c2ccc(Cl)c3c2n1CCC(F)(F)COC(CCN1CCOCC1)c1nn(C)c(CC)c1-3 (centres unmarked)
ring closure, isolated yield ([1]; from CCOC(=O)c1[nH]c2c(-c3c(C(CCN4CCOCC4)OCC(F)(F)CCO)nn(C)c3CC)c(Cl)ccc2c1CCCOc1cccc2cc(F)ccc12, amine bond, PPh3/DTBAD, THF, 22.5 mM): 83%
